According to patent US8247594B2, “Insecticidal compounds” (Syngenta Crop Protection LLC, priority 2007, dated 2012):

Legend:
Tetranychus urticae = Tetranychus urticae (two-spotted spider mite) leaf disc spray test; format: in vivo; details: application rate 200 ppm, sprayed bean leaf discs, mixed ages, 8 days; egg, larval and adult mortality
Source text: Tetranychus Urticae (Two-Spotted Spider Mite): Bean leaf discs on agar in 24-well microtiter plates were sprayed with test solutions at an application rate of 200 ppm. After drying, the leaf discs are infested with mite populations of mixed ages. 8 days later, discs are checked for egg mortality, larval mortality, and adult mortality.

Myzus persicae = Myzus persicae (green peach aphid) leaf disc spray test; format: in vivo; details: application rate 200 ppm, sprayed sunflower leaf discs, mixed ages, 6 DAT; mortality
Protocol: Myzus Persicae (Green Peach Aphid): Sunflower leaf discs were placed on agar in a 24-well microtiter plate and sprayed with test solutions at an application rate of 200 ppm. After drying, the leaf discs were infested with an aphid population of mixed ages. After an incubation period of 6 DAT, samples were checked for mortality.

Structure (SMILES)	control of Tetranychus urticae (Tetranychus urticae)	control of Myzus persicae (Myzus persicae)
N#Cc1ccc(C(=O)Nc2c(Br)cc(C(F)(C(F)(F)F)C(F)(F)F)cc2Br)cc1NC(=O)OCC(Cl)(Cl)Cl [A11]	at least 80%	–
CCc1cc(C(F)(C(F)(F)F)C(F)(F)C(F)(F)F)cc(CC)c1NC(=O)c1ccc(C#N)c(NC(=O)OCC(Cl)(Cl)Cl)c1 (centres unmarked) [A12]	–	at least 80%
